pIC50: −log10 of the molar value.
How the values were obtained:
[1] = test system: B-lymphocytes and T-cell populations; conditions: cited from earlier work
[2] = test system: CMV-positive human PBMCs; experiment: CMV recall assay using human CMV+ PBMC; type: cell-based
Procedure: The cytomegalovirus (CMV) recall assay was used to assess the functional effects of Compound (I) on antigen-specific immune cells. This assay used CMV antigen to stimulate pre-existing memory T-cells in CMV-positive human PBMCs. Human CMV-positive PBMCs and CMV antigen were purchased from Astarte Biologics (Cat.No:1001 and Cat. No. 1004, respectively). To measure whether T cells from CMV-positive donor are functionally active, 2×10^5 CMV-positive PBMCs were stimulated with 0.05 μg/mL of CMV antigen and at the same time venetoclax was added. The cells were cultured in Roswell Park Memorial Institute (RPMI) media supplemented with 10% fetal bovine serum (FBS). On day 4, cells were quickly re-stimulated with phorbol 12-myristate-13-acetate (PMA, 0.08 μM)/ionomycin (1.3 μM) and treated with brefeldin A (5 μg/mL) for 4 hours. Cells were stained with the following commercial antibodies: CD3, CD4, IFNγ, and IL-2 (all from Biolegend), as well as with the Zombie Green™ fixable viability kit. Cells were analyzed using an LSRFortessa™ X-20 instrument (BD Biosciences).
The remaining live cells were gated by CD3 and CD4 expression whereas CD3^+CD4^+ cells were considered as CD4^+ T-cells and CD3^+CD4^− cells were considered as CD8^+ T-cells. Production of IFNγ and IL-2 cytokines by CD8+ T-cells was assessed by flow cytometry (FIG. 10B, 10C).

[3] = test system: NCI-H211; experiment: Venetoclax cell killing (CellTiter-Glo); type: cell-based, human
Procedure: Solid tumor cell lines were obtained from American Type Culture Collection (ATCC, Manassas, Va.) or the National Cancer Institute (NCI) and cultured in humidified incubators at 37° C. (5% CO2) in appropriate media (specified by supplier) supplemented with 10% fetal bovine serum (FBS) or 10% human serum (HS). 24 hours after plating into 96-well or 384-well tissue culture plates, venetoclax was added to cells at various concentrations (typically 0.010 to 10 μM in half-log increments) to perform concentration-response assessments of cell killing. After 1 to 5 days of culture in the presence of venetoclax, cell viability was assessed using CellTiter-Glo® reagent (Promega). IC50 values were determined by non-linear regression analysis of the concentration response data (Table 5 and Table 6).

[4] = test system: MC38 tumors; experiment: MC38 colon carcinoma syngeneic model, immune competent C57BL/6 mice; type: in vivo, mouse; conditions: MC38 in C57BL/6 mice; venetoclax 50 mg/kg/day orally 14 days; antibody 10 mg/kg IP every 4 days, 3 times; day 25
Procedure: BALB/c, C57BL/6, CB6F1 (C57BL/6 bred with BALB/c) and SCID mice were obtained from Charles River (Wilmington, Mass.).
MC38, mouse colon carcinoma cell line was obtained from National Cancer Institute (NCI).
Compound (I),venetoclax, was formulated in 10% ethanol+30% PEG 400+60% Phosal® 50PG. Venetoclax was administered orally once a day for 14 days at 50 mg/kg/day.
1×10^5 CT26, EMT6 or MC38 cells were subcutaneously injected with Matrigel into the flanks of BALB/c, CB6F1 or C57BL/6 mice, respectively. Seven days later, mice were randomized to treatment groups of vehicle, venetoclax, anti-PD-1/PD-L1 or the combination of venetoclax and anti-PD-1/PD-L1. Tumor volume was determined via measurements of the length (L) and width (W) of the tumor with electronic calipers and the volume was calculated according to the following equation: V=L×W2/2 using Study Director Version 2.1.11 (Studylog Systems Inc., South San Francisco). Complete response (CR) was defined as reduction in tumor volume to ≤25 mm^3 over at least 3 successive measurements.

[5] = test system: human PBMCs; experiment: In vitro sensitivity of human PBMCs; type: cell-based
Procedure: Human PBMCs were thawed and cultured overnight in 30 U/mL of interleukin-2 (IL-2). Cells were harvested, washed once with complete media and counted. PBMCs were plated at a density of 5×10^5 cells per well in a 48-well plate with 30 U/mL IL-2. For stimulation of T-cells, cells were plated in anti-CD3-coated wells (2.5 μg/mL; ThermoFisher cat. #16-0037-85, clone OKT3) and soluble anti-CD28 was added (1 μg/mL; ThermoFisher cat. #16-0289-85, clone CD28.2). Cells were treated with increasing concentrations of venetoclax for 24 hours (dimethyl sulfoxide (DMSO) was used as control). Cells were harvested, stained and subjected to flow cytometry analysis with a BD LSRII instrument (BD Biosciences)
However, when PBMCs were stimulated with anti-CD3 and anti-CD28 for 72 hours before treating with venetoclax, the T-cells were not sensitive to venetoclax. (FIG. 7B). While the proportion of naïve T-cells (CD4^+CD62L^+CD45RO^− and […]) decreased with increasing venetoclax concentrations, the proportion of CD4^+ central memory (TCM; CD62L^+CD45RO^+) and CD8^+ terminally differentiated effector memory (TEMRA; CD8^+CD62L^−CD45RO^−) and effector memory cells (TEM; CD8^+CD62L^−CD45RO^+) increased relative to the number of surviving T-cells (FIGS. 8A and 8C). […] In separate experiments, human PBMCs were thawed, rested overnight and then treated with venetoclax for 24 hours. Similar results were observed when increasing the number of tested samples (n=9 donors), and refining the markers for the different T-cell subsets: naïve T-cells (TN; CD62L+CD45RA+), central memory (TCM; CD62L+CD45RA−), effector memory cells (TEM; CD62L−CD45RA−) and terminally differentiated effector memory (TEMRA; CD62L−CD45RA+) (FIGS. 8E, 8F, 8G). Venetoclax decreases the proportion of naïve T-cells, but not memory cells, and specifically induces an increase in effector memory T-cells. It can therefore be seen that, while naïve T- and B-cells were sensitive to venetoclax, memory T-cells were less sensitive to venetoclax. While TCM cells home to lymph nodes and efficiently stimulate dendritic cells, TEM and TEMRA cells home to tissues, comprised of antigen-experienced cells and are ready to mediate rapid effector and cytotoxic functions necessary to kill the tumor.

[6] = unstimulated, increasing concentrations

Question: Which “reductions in T-cell populations” value ([1]; Lu et al. 2017, Khaw et al. 2014) does the source give for `CC1(C)CCC(CN2CCN(c3ccc(C(=O)NS(=O)(=O)c4ccc(NCC5CCOCC5)c([N+](=O)[O-])c4)c(Oc4cnc5[nH]ccc5c4)c3)CC2)=C(c2ccc(Cl)cc2)C1` [Compound (I), venetoclax] here?
Answer: Its value is “up to 30%”.

Question: And the “reductions in B-lymphocytes” value ([1]; clinically and in experimental studies)?
Answer: The value was “significant reductions”.

Question: And the “total number of lymphocytes” value ([2]; 0.05 μg/mL CMV antigen, day 4)?
Answer: Its value is “reduced the total number of lymphocytes in a dose-dependent manner”.

Question: What about the “remaining T-cell activation, MFI of IFNγ and IL-2 (CD8+ T-cells)” value ([2]; CMV antigen, re-stimulated with PMA/ionomycin on day 4) of the same compound?
Answer: The value was “dose-dependent inversely proportional increase”.

Question: And the pIC50 ([3]; Homo sapiens, NCI-H211, 48 h, Lung, 10% HS, 2 days)?
Answer: The pIC50 was 7.52.

Question: What about the “sensitivity at clinically relevant concentrations” value ([3]; only line of Tables 5 and 6) of the same compound?
Answer: Its value is “showed sensitivity”.

Question: And the “tumor growth inhibition (TGI)” value [4]?
Answer: Its value is 41%.

Question: What about the “proportion of the T-cell subsets” value ([5]; CD3/CD28 stimulated conditions) of the same compound?
Answer: The value was “did not affect”.

Question: And the “sensitivity of T-cells” value ([5]; PBMCs stimulated with anti-CD3 and anti-CD28 for 72 hours before treatment)?
Answer: Its value is “not sensitive”.

Question: What about the “number of B-cells and T-cells (CD4+ and CD8+)” value ([5]; unstimulated PBMCs cultured 72 hours, then 24 hours treatment) of the same compound?
Answer: The value was “dose-dependent decrease”.

Question: And the “proportion of CD4+ TCM, CD8+ TEMRA and CD8+ TEM cells relative to surviving T-cells” value [5, 6]?
Answer: Its value is “increased”.

Question: And the “proportion of naïve T-cells” value [5, 6]?
Answer: The value was “decreased”.
